Laboratory results as given in patent US9453017B2, “Antiviral therapies with phospholipase D inhibitors” (Vanderbilt University, priority 2011, dated 2016).
Read-outs that look alike come from different tables or passages of the source.

Experiments:
[1] = test system: A549 cells infected with A/Puerto Rico/8/1934; assay: Viral nucleoprotein (NP) / Rab11 trafficking (FIG. 8g); format: cell-based, human; conditions: 5 μM; A/Puerto Rico/8/1934, MOI=5; 16 hr infection
From the text: (§1) Samples were fixed in 4% formaldehyde, permeabilized with 0.3% Triton X-100, and then exposed to antisera targeting proteins of interest and corresponding fluorescent secondary antibodies alongside DAPI to visualize nuclei. Focal infections were imaged and processed using a Nikon C1Si and NIS Elements software. Confocal images were captured with a Zeiss LSM 510 NLO Meta and analyzed with Zeiss Zen 2011 software and ImageJ.
(§2) (i) Quantitation of the area of positive Mx1 staining, n=4 for DMSO and n=5 for drug treatments. ANOVA and Dunnett's post test were used to determine significance of changes when PLD inhibitors were used, and a t-test was used when cells were treated with alcohol, * p<0.05, ** p<0.01, ***, p<0.001, **** p<0.0001. Data in (b, d, f, i) is mean±SEM, n=3 fields of at least 15 cells.

[2] = test system: influenza virus; format: cell-based; conditions: 10 μM compound; compared to vehicle; FIG. 2
[3] = test system: A/Puerto Rico/8/1934; assay: Traditional plaque assay in MDCK cells (FIG. 14a); conditions: 10 μM, vs DMSO treated control
[4] = test system: clathrin in A549 cells infected with A/Brisbane/59/07; assay: Diffuse infection model, clathrin accumulation (FIG. 8a-b); format: cell-based, human
Protocol: (§3) A549 cells were seeded onto chamber slides and allowed to adhere overnight. The cells were washed with PBS, and serum-free medium containing treatment was added to the cells. After one hour of treatment, the medium was removed and replaced with serum-free medium containing treatment and 0.05 MOI influenza virus. The infected cultures were kept at 4° C. for 15 minutes before being incubated at 37° C. At appropriate times, cultures were removed and fixed with […] and processed for microscopy as above. Z stacks were acquired using a Zeiss LSM 510 microscope, and images were analyzed with ImageJ (Java-based software available from NIH). Data was processed as above.
as §1, §2

[5] = test system: A/California/04/2009 (H1N1); format: cell-based, influenza virus
[6] = test system: PR8 influenza A virus; assay: In vivo mouse model of influenza infection, 30 mg/kg (FIGS. 3, 4); conditions: 30 mg/kg intraperitoneal twice daily for 7 days; for survival of infected mice: FIG. 4
Protocol: A mouse model of influenza infection was used to test the in vivo efficacy of representative disclosed compounds. Compounds were administered at 30 mg/kg and the mice were infected with PR8 influenza A virus. Briefly, C57BL/6J mice (female 8- to 10-wk-old; purchased from The Jackson Laboratory and held under pathogen-free conditions at St. Jude Children's Research Hospital) were used in these studies. Mice were anesthetized by i.p. injection with Avertin (2,2,2-tribromethanol; prepared in-house) before intranasal (i.n.) infection with 80% infective dose (EID80) units of the PR8 influenza A virus in PBS. Mice were administered either the indicated PLD inhibitor (30 mg/kg) or vehicle intraperitoneal starting at 24 hr per exposure. Compounds were administered twice daily for 7 days and subjects were measured for changes in body weight (FIG. 3) or survival (FIG. 4) as a function of PLD inhibitor administration. Mice were sacrificed if moribund.

[7] = test system: phospholipase D (PLD); format: cell-based, human; conditions: 10 μM; A549 cells infected with California/04/2009 at 1 MOI; 6 hours post-infection; FIG. 6
[8] = test system: A/Brisbane/59/2007 (H1N1); format: cell-based, influenza virus; conditions: for infected cells, A/Brisbane/59/2007: 10 μM, vs DMSO vehicle
[9] = test system: RAB5 and CD63 in A549 cells infected with A/California/04/2009; assay: Diffuse infection model, RAB5 and CD63 recruitment (FIG. 8c-f); format: cell-based, human
Protocol: as §3, §1, §2

[10] = test system: PR8 (A/Puerto Rico/8/1934); assay: Lethal influenza infection in mice, JWJ 13 mg/kg (FIG. 9); format: in vivo, mouse
[11] = Pharmacokinetics after intraperitoneal injection in mice (FIG. 15); format: in vivo; conditions: mouse
Protocol: The pharmacokinetic behavior of a representative disclosed PLD inhibitor of the present invention was assessed following intraperitoneal administration in a mouse model. Briefly, mice were administered a single dose of the PLD inhibitor VU0364739 (10 mg/kg) by intraperitoneal injection. Tissue (brain, lung, and liver) and plasma samples were isolated following euthanizing animals (N=2 for each time point) at the indicated time points (see FIG. 15). The samples were flash frozen and stored at −80° C. Analysis was carried out by LC-MS/MS following extraction.

[12] = test system: influenza virus strains; format: cell-based
[13] = 50 minutes post-infection, 0.05 MOI, vs DMSO
[14] = 80 minutes post-infection, 0.05 MOI, vs DMSO
[15] = 10 μM PLD inhibitor, vs DMSO control

SMILES | viral nucleoprotein (NP) trafficking [1] | infection of A549 cells [2] | plaque formation [3] | clathrin accumulation [4, 13] | clathrin accumulation [4, 14] | protection from A/California/04/2009 infection ([5]; 10 μM, […], vs vehicle control) | survival of infected mice [6] | protection from A/Brisbane/59/2007 infection [8] | infected cells, A/Brisbane/59/2007 [8] | CD63 accumulation [9, 15] | virus infection of A549 cells [12] | other results
O=C(NCCN1CCC2(CC1)C(=O)NCN2c1cccc(F)c1)c1ccc2ccccc2c1 [No. 1, N-(2-(1-(3-fluorophenyl)-4-oxo-1,3,8-triazaspiro[4.5]decan-8-yl)ethyl)-2-naphthamide] | trafficking was disrupted | blocked infection of A549 cells | less plaque formation | accumulated less clathrin | persisted at least until 80 minutes | significant protection | survival improved | still significantly protected | significantly fewer (p<0.001) infected cells | significantly less CD63 | – | protection from A/California/04/2009 infection [5]: protected (p<0.05); formation of PtdBuOH [7]: inhibited; less likely to die ([10]; 13 mg/kg intraperitoneal, 4000 EID50 PR8, Log-Rank p=0.0061, FIG. 9b): about 27%; mice that survived (of cohort) ([10]; 13 mg/kg intraperitoneal, 4000 EID50 PR8, vehicle one out of 42): 12/38; recovery of weight lost ([10]; 13 mg/kg intraperitoneal, 4000 EID50 PR8, vs vehicle): recovered the weight lost more quickly; weight loss ([10]; 13 mg/kg intraperitoneal, 4000 EID50 PR8, vs vehicle, FIG. 9a): lost significantly less weight; virus in lungs (plaque assay) ([10]; 8 hours after infection, p=0.0017, FIG. 9c): significantly less virus; innate immune response ([10]; 8 hours after infection, vs vehicle): more activated innate immune response; accumulation in liver and lung ([11]; in vivo, ip, 10 mg/kg): elevated accumulation in liver and lung compared to plasma; accumulation in brain ([11]; single dose 10 mg/kg intraperitoneal, 15 min to 3 hr post-administration): appeared to be constant; exposure in tissues (brain, lung, liver) and plasma ([11]; single dose 10 mg/kg intraperitoneal, FIG. 15): sustained exposure in the tissues examined and in plasma over a period of at least three hours
C[C@@H](CN1CCC(n2c(=O)[nH]c3cc(Br)ccc32)CC1)NC(=O)[C@@H]1C[C@@H]1c1ccccc1 [No. 2, (1R,2S)-N-((S)-1-(4-(5-bromo-2-oxo-2,3-dihydro-1H-benzo[d]imidazol-1-yl)piperidin-1-yl)propan-2-yl)-2-phenylcyclopropanecarboxamide] | trafficking was disrupted | blocked infection of A549 cells | less plaque formation | accumulated less clathrin | persisted at least until 80 minutes | – | particularly profound | still significantly protected | significantly fewer (p<0.001) infected cells | significantly less CD63 | – | weight loss associated with virus infection ([6]; vs vehicle (10% Tween 80), through about day 11 post-infection, FIG. 3): trend of the test compound to protect infected mice against weight loss
O=C(NCCN1CCC(n2c(=O)[nH]c3ccccc32)CC1)c1ccc2ccccc2c1 [No. 3, N-(2-(4-(2-oxo-2,3-dihydro-1H-benzo[d]imidazol-1-yl)piperidin-1-yl)ethyl)-2-naphthamide] | – | blocked infection of A549 cells | – | accumulated less clathrin | – | significant protection | – | still significantly protected | significantly fewer (p<0.001) infected cells | significantly less CD63 | – | –
CCCCO [n-butanol, reference compound] | – | – | – | – | – | – | – | – | – | – | has a significant effect on virus infection of A549 cells | clathrin accumulation ([4]; 0.6% alcohol, 80 minutes after infection, compared to tert-butanol): significantly less clathrin had accumulated; protection from productive infection, A/California/04/2009 [5]: significantly protected from a productive infection; protection from productive infection, A/Brisbane/59/2007 [8]: significantly protected from a productive infection; CD63 accumulation ([9]; 0.6% alcohol, vs respective control (tert-butanol)): significantly less CD63
CC(C)(C)O [tert-butanol] | – | – | – | – | – | – | – | – | – | – | does not have any effect on virus infection of A549 cells | –
